{"source": "patent US11980627B2", "about": "“Triple pharmaceutical composition for proteinaceous infection” (priority 2019, dated 2024)", "origin": "cited, not measured here", "key": {"AD": {"tested_on": "AD", "conditions": "in vivo"}, "patients with AD": {"tested_on": "patients with AD", "conditions": "human, in vivo"}, "AD patients": {"tested_on": "AD patients", "conditions": "twelve months' treatment, alone or in combination"}, "soluble amyloid protein": {"tested_on": "soluble amyloid protein", "sequence (P05067 672-711 limits assumed)": "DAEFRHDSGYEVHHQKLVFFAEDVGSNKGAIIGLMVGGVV", "conditions": "intravenous"}}}
{"molecule": "CC(=O)Nc1ccc(O)cc1", "note": "[Acetaminophen]", "values": [{"measurement": "effects on AD", "setting": "AD", "value": "not found to have beneficial effects"}]}
{"molecule": "COc1ccc2cc([C@H](C)C(=O)O)ccc2c1", "note": "[Naproxen]", "values": [{"measurement": "cognitive function in patients with AD", "setting": "patients with AD", "value": "did not improve"}]}
{"molecule": "CC(=O)Oc1ccccc1C(=O)O", "note": "[aspirin]", "values": [{"measurement": "effects on AD", "setting": "AD", "value": "not found to have beneficial effects"}]}
{"molecule": "CO[C@H]1/C=C/O[C@@]2(C)Oc3c(C)c(O)c4c(O)c(c(/C=N/N5CCN(C)CC5)c(O)c4c3C2=O)NC(=O)/C(C)=C\\C=C\\[C@H](C)[C@H](O)[C@@H](C)[C@@H](O)[C@@H](C)[C@H](OC(C)=O)[C@@H]1C", "note": "[rifampin]", "values": [{"measurement": "effects on cognition or function in AD", "setting": "AD patients", "value": "no beneficial effects"}]}
{"molecule": "Solanezumab: intravenous amyloid immunotherapy; humanized monoclonal antibody to soluble amyloid protein", "values": [{"measurement": "outcome of amyloid immunotherapy in AD", "setting": "soluble amyloid protein", "value": "failure"}]}
